We go through 48 molecules from patent US7217722B2 (Kirin Beer Kabushiki Kaisha, priority 2000, dated 2007).

pIC50: −log10 of the molar value.

The target in the assay is Rho kinase (fused protein of bovine Rho kinase catalyst region and glutathione S-transferase) (Bos taurus, UniProt Q28021). Description: Rho kinase inhibitory activity (phosphorylation of S6 231–239 substrate, γ32P-ATP). Type of assay: biochemical. The conditions noted are these: concentration inhibiting substrate phosphorylation by 50%. The method, then: This permits the substrate to be labeled with the radioisotope.
Rho kinase (fused protein of bovine Rho kinase catalyst region and glutathione S-transferase), sequence (Q28021 92-354 limits assumed): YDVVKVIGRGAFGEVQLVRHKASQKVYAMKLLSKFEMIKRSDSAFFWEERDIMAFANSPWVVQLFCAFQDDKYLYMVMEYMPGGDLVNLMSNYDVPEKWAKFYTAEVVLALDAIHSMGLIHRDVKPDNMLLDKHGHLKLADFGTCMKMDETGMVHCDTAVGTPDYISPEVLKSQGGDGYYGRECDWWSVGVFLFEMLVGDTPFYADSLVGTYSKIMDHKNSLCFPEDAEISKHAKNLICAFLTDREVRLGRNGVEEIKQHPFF
Thereafter, the substrate was adsorbed to a filter paper. ATP was washed away with a phosphoric acid solution, and the amount of the phosphorylated substrate was then measured with a liquid scintillation counter.
Consider `O=C(NCc1c(F)cc(F)cc1F)Nc1ccc2c(c1)C(=O)NC2=O` [Example 99, N-(1,3-Dioxo-2,3-dihydro-1H-5-isoindolyl)-N′-(2,4,6-trifluorobenzyl)urea], for which the pIC50 is 6.62.
In turn, `O=C(NCc1ccc(Cl)cc1Cl)Nc1ccc2[nH]ncc2c1` [Example 100, N-(2,4-Dichlorobenzyl)-N′-(1H-5-indazolyl)urea] showed a pIC50 of 6.66.
For `O=C(NCc1c(Cl)ccc(Cl)c1Cl)Nc1ccc2[nH]ncc2c1` [Example 101, N-(1H-5-Indazolyl)-N′-(2,3,6-trichloro-benzyl)urea] the value was 5.74; for `O=C(NCc1c(F)cc(F)cc1F)Nc1ccc2[nH]ncc2c1` [Example 103, N-(1H-5-Indazolyl)-N′-(2,4,6-trifluorobenzyl)urea], 6.59; for `O=C(NCc1ccccc1Cl)Nc1ccc2[nH]ncc2c1` [Example 104, N-(2-Chlorobenzyl)-N′-(1H-5-indazolyl)urea], 6.62.
Molecule `O=C(NCC1CCCCC1)Nc1ccc2[nH]ncc2c1` [Example 105, N-Cyclohexylmethyl-N′-(1H-5-indazolyl)urea] showed a pIC50 of 6.41.
In turn, `O=C(NCc1c(Cl)cccc1Cl)Nc1ccc2[nH]ncc2c1` [Example 106, N-(2,6-Dichlorobenzyl)-N′-(1H-5-indazolyl)urea] gave a pIC50 of 5.85.
For `O=C(NCc1cccc2ccccc12)Nc1ccc2[nH]ncc2c1` [Example 107, N-(1H-5-Indazolyl)-N′-(1-naphthylmethyl)urea], the pIC50 is 6.33.
In the case of `O=C(NCc1c(F)ccc(F)c1F)Nc1ccncc1` [Example 108, N-(Pyridyl)-N′-(2,3,6-trifluorobenzyl)urea], the pIC50 is 5.42.
The molecule `O=C(NCc1c(F)ccc(F)c1F)Nc1ccc2c(c1)C(=O)NC2=O` [Example 109, N-(1,3-Dioxo-2,3-dihydro-1H-5-isoindolyl)-N′-(2,3,6-trifluorobenzyl)urea] had a pIC50 of 6.79.
On to `O=C(NCc1c(F)ccc(F)c1F)Nc1ccc2[nH]ncc2c1` [Example 110, N-(1H-5-Indazolyl)-N′-(2,3,6-trifluorobenzyl)urea], for which the pIC50 was 6.71.
The molecule `O=C(NCc1cccc([N+](=O)[O-])c1)Nc1ccncc1` [Example 111, N-(3-Nitrobenzyl)-N′-(4-pyridyl)urea] had a pIC50 of 5.75.
Molecule `Nc1cccc(CNC(=O)Nc2ccc3c(c2)C(=O)NC3=O)c1` [Example 112, N-(3-Aminobenzyl)-N′-(1,3-dioxo-2,3-dihydro-1H-5-isoindolyl)urea] gave a pIC50 of 6.51.
`COc1cc(CNC(=O)Nc2ccc3[nH]ncc3c2)ccc1O` [Example 113, N-(4-Hydroxy-3-methoxybenzyl)-N′-(1H-5-indazolyl)urea] gave a pIC50 of 6.31.
Take `Clc1ccc(CN2CCC(Nc3ccc4[nH]ncc4c3)CC2)cc1Cl` [Example 114, N-[1-(3,4-Dichlorobenzyl)-4-piperidyl]-N-(1H-5-indazolyl)amine]: the pIC50 is 6.48.
For `Cc1ccc(CN2CCC(Nc3ccc4[nH]ncc4c3)CC2)cc1C` [Example 115, N-[1-(3,4-Dimethylbenzyl)-4-piperidyl]-N-(1H-5-indazolyl)amine] the value was 6.43; for `c1ccc2cc(CN3CCC(Nc4ccc5[nH]ncc5c4)CC3)ccc2c1` [Example 116, N-(1H-5-Indazolyl)-N-[1-(2-naphthylmethyl)-4-piperidyl]amine], 6.87.
`Fc1cccc(CN2CCC(Nc3ccc4[nH]ncc4c3)CC2)c1` [Example 117, N-[1-(3-Fluorobenzyl)-4-piperidyl]-N-(1H-5-indazolyl)amine]: the pIC50 is 6.50.
The molecule `FC(F)(F)c1ccc(CN2CCC(Nc3ccc4[nH]ncc4c3)CC2)cc1` [Example 118, N-(1H-5-Indazolyl)-N-{1-[4-(trifluoromethyl)benzyl]-4-piperidyl}amine] had a pIC50 of 6.56.
In turn, `COc1cccc(CN2CCC(Nc3ccc4[nH]ncc4c3)CC2)c1` [Example 119, N-(1H-5-Indazolyl)-N-[1-(3-methoxybenzyl)-4-piperidyl]amine] had a pIC50 of 6.42.
Consider `CCc1ccc(CN2CCC(Nc3ccc4[nH]ncc4c3)CC2)cc1` [Example 120, N-[1-(4-Ethylbenzyl)-4-piperidyl]-N-(1H-5-indazolyl)amine], for which the pIC50 was 6.62.
`CCc1ccccc1CN1CCC(Nc2ccc3[nH]ncc3c2)CC1` [Example 121, N-[1-(2-Ethylbenzyl)-4-piperidyl]-N-(1H-5-indazolyl)amine] gave a pIC50 of 6.29.
`CC(C)c1ccc(CN2CCC(Nc3ccc4[nH]ncc4c3)CC2)cc1` [Example 122, N-(1H-5-Indazolyl)-N-[1-(4-isopropylbenzyl)-4-piperidyl]amine] had a pIC50 of 6.51. This pIC50 lies 0.22 log units higher than the previous one.
Regarding `c1ccc(Oc2cccc(CN3CCC(Nc4ccc5[nH]ncc5c4)CC3)c2)cc1` [Example 123, N-(1H-5-Indazolyl)-N-[1-(3-phenoxybenzyl)-4-piperidyl]amine], the pIC50 is 6.66. This pIC50 and that of the molecule before are within 0.2 log units of each other.
Take `Cc1ccc(CN2CCC(Nc3ccc4[nH]ncc4c3)CC2)cc1[N+](=O)[O-]` [Example 124]: the pIC50 was 6.62.
With `CCN1CCC(Nc2ccc3[nH]ncc3c2)CC1` [Example 125, N-(1-Ethyl-4-piperidyl)-N-(1H-5-indazolyl)-amine], the pIC50 was 6.13.
`c1cc2[nH]ncc2cc1NC1CCCCC1` [Example 129, N-Cyclohexyl-N-(1H-5-indazolyl)amine] showed a pIC50 of 6.17.
The molecule `c1ccc(CCN2CCC(Nc3ccc4[nH]ncc4c3)CC2)cc1` [Example 130, N-(1H-5-Indazolyl)-N-(1-phenethyl-4-piperidyl)amine] gave a pIC50 of 6.34. The pIC50 values of the last two molecules are within 0.2 log units of each other.
`c1cncc(CN2CCC(Nc3ccc4[nH]ncc4c3)CC2)c1` [Example 132, N-(1H-5-Indazolyl)-N-[1-(3-pyridylmethyl)-4-piperidyl]amine] had a pIC50 of 6.22.
For `c1cc(CN2CCC(Nc3ccc4[nH]ncc4c3)CC2)ccn1` [Example 133, N-(1H-5-Indazolyl)-N-[1-(4-pyridylmethyl)-4-piperidyl]amine], the pIC50 is 6.17. This pIC50 and that of the molecule before are within 0.2 log units of each other.
Molecule `Clc1ccccc1CN1CCC(Nc2ccc3[nH]ncc3c2)CC1` [Example 134, N-[1-(2-Chlorobenzyl)-4-piperidyl]-N-(1H-5-indazolyl)amine] showed a pIC50 of 6.36. The pIC50 values of the last two molecules are within 0.2 log units of each other.
The result for `Clc1cccc(CN2CCC(Nc3ccc4[nH]ncc4c3)CC2)c1` [Example 135, N-[1-(3-Chlorobenzyl)-4-piperidyl]-N-(1H-5-indazolyl)amine] reads 6.55.
The molecule `Fc1ccc(CN2CCC(Nc3ccc4[nH]ncc4c3)CC2)cc1` [Example 137, N-[1-(4-Fluorobenzyl)-4-piperidyl]-N-(1H-5-indazolyl)amine] showed a pIC50 of 6.32.
Take `COc1ccc(CN2CCC(Nc3ccc4[nH]ncc4c3)CC2)cc1` [Example 138, N-(1H-5-Indazolyl)-N-[1-(4-methoxybenzyl)-4-piperidyl]amine]: the pIC50 is 6.45.
`Cc1ccc(CN2CCC(Nc3ccc4[nH]ncc4c3)CC2)cc1` [Example 139, N-(1H-5-Indazolyl)-N-[1-(4-methylbenzyl)-4-piperidyl]amine] showed a pIC50 of 6.60.
Molecule `O=[N+]([O-])c1cccc(CN2CCC(Nc3ccc4[nH]ncc4c3)CC2)c1` [Example 140, N-(1H-5-Indazolyl)-N-[1-(3-nitrobenzyl)-4-piperidyl]amine] gave a pIC50 of 6.33.
Consider `O=[N+]([O-])c1ccc(CN2CCC(Nc3ccc4[nH]ncc4c3)CC2)cc1` [Example 141, N-(1H-5-Indazolyl)-N-[1-(4-nitrobenzyl)-4-piperidyl]amine], for which the pIC50 is 6.18.
The result for `c1ccc(COc2ccc(CN3CCC(Nc4ccc5[nH]ncc5c4)CC3)cc2)cc1` [Example 142, N-{1-[4-(Benzyloxy)benzyl]-4-piperidyl}-N-(1H-5-indazolyl)amine] reads 6.18.
Consider `COc1cc(CN2CCC(Nc3ccc4[nH]ncc4c3)CC2)cc(OC)c1` [Example 143, N-[1-(3,5-Dimethoxybenzyl)-4-piperidyl]-N-(1H-5-indazolyl)amine], for which the pIC50 was 6.40.
As for `Clc1cc2c(cc1CN1CCC(Nc3ccc4[nH]ncc4c3)CC1)OCO2` [Example 144, N-{1-[(6-Chloro-1,3-benzodioxol-5-yl)methyl]-4-piperidyl}-N-(1H-5-indazolyl)amine], the pIC50 was 6.34.
Consider `Oc1ccc(CN2CCC(Nc3ccc4[nH]ncc4c3)CC2)cc1` [Example 145, 4-{[4-(1H-5-Indazolylamino)piperidino]methyl}phenol], for which the pIC50 was 6.54.
With `COC(=O)c1cccc(CN2CCC(Nc3ccc4[nH]ncc4c3)CC2)c1` [Example 147, Methyl 3-{[4-(1H-5-indazolylamino)piperidino]methyl}benzoate], the pIC50 was 6.34.
Molecule `COC(=O)c1ccc(CN2CCC(Nc3ccc4[nH]ncc4c3)CC2)cc1` [Example 148, Methyl 4-{[4-(1H-5-indazolylamino)piperidino]methyl}benzoate] had a pIC50 of 6.78.
`CC(=O)Oc1ccc(CN2CCC(Nc3ccc4[nH]ncc4c3)CC2)cc1` [Example 149, 4-{[4-(1H-5-Indazolylamino)piperidino]methyl}phenyl acetate]: the pIC50 is 6.69. The pIC50 values of the last two molecules are within 0.2 log units of each other.
`Fc1cccc(Cl)c1CN1CCC(Nc2ccc3[nH]ncc3c2)CC1` [Example 150, N-[1-(2-Chloro-6-fluorobenzyl)-4-piperidyl]-N-(1H-5-indazolyl)amine] showed a pIC50 of 6.09. This pIC50 is 0.60 log units lower than that of the molecule before.
Consider `Clc1ccccc1CN1CCC(Nc2ccc3[nH]ncc3c2)C1` (stereo not drawn) [Example 151, N-[1-(2-Chlorobenzyl)tetrahydro-1H-3-pyrrolyl]-N-(1H-5-indazolyl)amine], for which the pIC50 is 7.35.
With `Fc1ccc(CN2CCC(Nc3ccc4[nH]ncc4c3)C2)cc1` (stereo not drawn) [Example 154, N-[1-(4-Fluorobenzyl)tetrahydro-1H-3-pyrrolyl]-N-(1H-5-indazolyl)amine], the pIC50 is 7.08.
`Brc1ccc(CN2CCC(Nc3ccc4[nH]ncc4c3)C2)cc1` (stereo not drawn) [Example 155, N-[1-(4-Bromobenzyl)tetrahydro-1H-3-pyrrolyl]-N-(1H-5-indazolyl)amine] had a pIC50 of 7.62.

As a reminder, the pIC50 is −log10 of the IC50, conventionally taken in molar units. High values mean a small IC50, low ones a large IC50.
